Experimental data reported in patent US20080312253A1, “Pharmaceutical compositions containing pyrazole derivatives for treating as serotonin antagonist” (KOREA INSTITUTE OF SCIENCE AND TECHNOLOGY, priority 2007, published 2008).

Columns and labels:
[1] = target: T1, serotonin 5-HT3A receptor (Homo sapiens, UniProt P46098); experiment: Assay for 5-HT3A receptor: two-electrode voltage clamp of 5-HT-induced inward current in Xenopus oocytes expressing 5-HT3A receptor; assay type: cell-based; conditions: inhibition of inward current (I5-HT) induced by 5-HT (1 μM), Xenopus laevis oocytes, from concentration-response curves; for IC50: read-out: IC50 (50% inhibitory concentration); for inhibition: read-out: maximum inhibition value (Vmax)
T1 sequence (P46098 24-478): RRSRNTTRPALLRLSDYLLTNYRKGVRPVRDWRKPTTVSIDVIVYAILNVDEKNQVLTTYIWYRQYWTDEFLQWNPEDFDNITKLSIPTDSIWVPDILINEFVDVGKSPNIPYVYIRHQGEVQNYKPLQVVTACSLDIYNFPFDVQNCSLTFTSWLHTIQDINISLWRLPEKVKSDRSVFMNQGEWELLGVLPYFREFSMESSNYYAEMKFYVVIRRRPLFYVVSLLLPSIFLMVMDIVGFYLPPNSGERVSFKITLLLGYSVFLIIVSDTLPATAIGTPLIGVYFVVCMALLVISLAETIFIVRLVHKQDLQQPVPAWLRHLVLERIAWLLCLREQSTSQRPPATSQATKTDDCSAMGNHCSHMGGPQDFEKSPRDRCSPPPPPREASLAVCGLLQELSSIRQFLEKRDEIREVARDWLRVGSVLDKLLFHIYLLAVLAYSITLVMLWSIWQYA

Row | Compound | Hill coefficient (nH) [1] | maximum inhibition value (Vmax) [1] | IC50 [1] [µM] | inhibition [1] [%] | melting point [°C]
1 | 1-Phenyl-3-{2-[4-(4-chlorobenzhydryl)piperazin-1-yl]ethyl}aminomethyl-5-toluylpyrazole [Compound 13] | 2.2 ± 0.4 | 73.1 ± 3.1 | 8.2 ± 0.8 |  | 
2 | Clc1ccc(N2CCN(CCNCc3cc(-c4ccco4)n(-c4ccccc4)n3)CC2)cc1 [Compound 8, 1-Phenyl-3-{2-[4-(4-chlorophenyl)piperazin-1-yl]ethyl}aminomethyl-5-(2-furyl)pyrazole] | 2.0 ± 0.2 |  | 4.3 ± 0.3 | 97.3 ± 2 | 
3 | Cc1ccc(-c2cc(CNCCN3CCN(c4ccc(Cl)cc4)CC3)nn2C(C)(C)C)cc1 [Compound 9] |  |  | 2.4 ± 0.4 | 103 ± 6.5 | 
4 | 1-t-Butyl-3-{2-[4-(4-chlorophenyl)piperazin-1-yl]ethyl}aminomethyl-5-propylpyrazole [Compound 4] | 1.4 ± 0.3 | 97.3 ± 5.6 | 1.3 ± 0.3 |  | 
5 | Clc1ccc(N2CCN(CCNCc3cc(-c4ccccc4)n(-c4ccccc4)n3)CC2)cc1 [Compound 11, 1,5-Diphenyl-3-{2-[4-(4-chlorophenyl)piperazin-1-yl]ethyl}aminomethyl-5-pyrazole] | 1.1 ± 0.1 |  | 3.1 ± 0.3 | 101 ± 2.6 | 
6 | Clc1ccc(N2CCN(CCNCc3cc(-c4ccc(N5CCCCC5)cc4)n(-c4ccccc4)n3)CC2)cc1 [Compound 10, 1-Phenyl-3-{2-[4-(4-chlorophenyl)piperazin-1-yl]ethyl}aminomethyl-5-4-(N-piperidyl)phenylpyrazole] | 1.9 ± 0.1 |  | 6.4 ± 0.3 | 95.9 ± 1.6 | 
7 | Clc1cccc(N2CCN(CCNCc3cc(-c4ccco4)n(-c4ccccc4)n3)CC2)c1 [Compound 1, 1-Phenyl-3-{2-[4-(3-chlorophenyl)piperazin-1-yl]ethyl}aminomethyl-5-(2-furyl)pyrazole] | 1.5 ± 0.2 |  | 9.4 ± 0.7 | 95.9 ± 2.8 | 
8 | 1-Phenyl-3-{2-[4-(4-chlorophenyl)piperazin-1-yl]ethyl}aminomethyl-5-methylpyrazole [Compound 3] | 1.4 ± 0.1 | 98.5 ± 1.2 | 2.5 ± 0.3 |  | 
9 | CCCc1cc(CNCCN2CCN(c3ccc(Cl)cc3)CC2)nn1-c1ccccc1 [Compound 5, 1-Phenyl-3-{2-[4-(4-chlorophenyl)piperazin-1-yl]ethyl}aminomethyl-5-propylpyrazole] | 1.5 ± 0.3 |  | 1.3 ± 0.2 | 94.8 ± 4.8 | 
10 | CC(C)Cc1cc(CNCCN2CCN(c3ccc(Cl)cc3)CC2)nn1C(C)(C)C [Compound 7, 1-t-Butyl-3-{2-[4-(4-chlorophenyl)piperazin-1-yl]ethyl}aminomethyl-5-isobutylpyrazole] | 1.4 ± 0.4 |  | 3.3 ± 0.9 | 104 ± 3.5 | 133 to 134
11 | CC(C)Cc1cc(CNCCN2CCN(c3ccc(Cl)cc3)CC2)nn1-c1ccccc1 [Compound 6, 1-Phenyl-3-{2-[4-(4-chlorophenyl)piperazin-1-yl]ethyl}aminomethyl-5-isobutylpyrazole] | 1.2 ± 0.1 |  | 2.8 ± 0.2 | 103 ± 2.5 | 
12 | CN1[C@@H]2CC[C@H]1C[C@@H](OC(=O)c1cc(Cl)cc(Cl)c1)C2 [MDL72222, reference compound] | 1.25 ± 0.27 |  |  | 99.6 ± 7.7 | 
13 | Cc1cc(CNCCN2CCN(c3cccc(Cl)c3)CC2)[nH]n1 [Compound 2, 3-{2-[4-(3-Chlorophenyl)piperazin-1-yl]ethyl}aminomethyl-5-methylpyrazole] | 1.0 ± 0.1 |  | 9.6 ± 1.1 | 90.6 ± 2.7 | 
14 | Cc1ccc(-c2cc(CNCCN3CCN(c4ccc(Cl)cc4)CC3)nn2-c2ccccc2)cc1 [Compound 12, 1,5-Diphenyl-3-{2-[4-(4-chlorophenyl)piperazin-1-yl]ethyl}aminomethyl-5-toluylpyrazole] |  |  | 2.2 ± 0.2 | 95.5 ± 3.5 | 
